In BindingDB's records for doi:10.1016/S0960-894X(96)00246-6 (1996) one finds IC50 data, which are given here for 5 molecules.

What is called IC50 is the concentration that gives 50% inhibition. A lower IC50 goes with greater potency.

This assay can be described thus: Inhibition of ADP-induced human platelet aggregation.
With `CC(C)(C)[C@H](NC(=O)[C@H](CC(=O)O)NC(=O)CCCOc1ccc(C(=N)N)cc1)C(=O)O`, the IC50 is 230 nM. On to `CC(C)[C@H](NC(=O)[C@H](CC(=O)O)NC(=O)CCCOc1ccc(C(=N)N)cc1)C(=O)O` [2-{2-[4-(4-Carbamimidoyl-phenoxy)-butyrylamino]-3-carboxy-propionylamino}-3-methyl-butyric acid (FK633)], for which the IC50 was found to be 100 nM. Next, `CC(C)C[C@H](NC(=O)[C@H](CC(=O)O)NC(=O)CCCOc1ccc(C(=N)N)cc1)C(=O)O` [(S)-2-{(S)-2-[4-(4-Carbamimidoyl-phenoxy)-butyrylamino]-3-carboxy-propionylamino}-4-methyl-pentanoic acid]: 130 nM; `CN(C(=O)[C@H](CC(=O)O)NC(=O)CCCOc1ccc(C(=N)N)cc1)[C@@H](Cc1ccc(O)cc1)C(=O)O` [(S)-3-[4-(4-Carbamimidoyl-phenoxy)-butyrylamino]-N-[(S)-1-carboxy-2-(4-hydroxy-phenyl)-ethyl]-N-methyl-succinamic acid]: 120 nM; `COc1ccc(C[C@H](NC(=O)[C@H](CC(=O)O)NC(=O)CCCCOc2ccc(C(=N)N)cc2)C(=O)O)cc1` [(S)-3-[5-(4-Carbamimidoyl-phenoxy)-pentanoylamino]-N-[(S)-1-carboxy-2-(4-methoxy-phenyl)-ethyl]-succinamic acid]: 4500 nM.
